From patent US11603387B2, “SOCS mimetics for the treatment of diseases” (UNIVERSITY OF FLORIDA RESEARCH FOUNDATION, INC., priority 2014, dated 2023)
Each block holds one compound with its values, some of them ahead of it.

Assays:
[1] = tested on: SOCS1; assay: SOCS1 expression (qPCR, relative to GAPDH) in healthy control PBMCs treated in vitro; format: cell-based, human; settings: chloroquine diphosphate salt for 12 and 24 h
Description: FIGS. 9A and 9B. SOCS1 expression is not affected by chloroquine treatment, but is increased by dexamethasone treatment. (FIG. 9A) PBMCs, taken from healthy controls, were treated with (FIG. 9A) chloroquine diphosphate salt at the indicated molar concentrations for 12 and 24 h or (FIG. 9B) dexamethasone at the indicated molar concentrations for 3, 6, 12, or 24 h. Post treatment, SOCS1 expression, relative to GAPDH, was assessed via qPCR. Results shown as mean±s.e.m. The Kruskal-Wallis test followed by the Dunn's Multiple Comparison Test was chosen to assess statistical significance. (*P<0.05).
PBMCs were purified from heparinized blood by Ficoll-Paque gradient centrifugation. Briefly, whole blood was diluted with PBS (1:1) and gently layered on the Ficoll (Lymphocyte Separation Medium; Cellgro, Manassas, Va.). […]
Using the Promega RNA extraction protocol, total RNA was extracted from human PBMCs ex vivo or from mouse CD4^+CD25^− cells after being cultured under control (anti-CD3 and anti-CD28) or Th17 inducing conditions in the presence or absence of SOCS1-KIR peptide. cDNA synthesis and qPCR were performed as described in (Collins et al. 2011), with modifications. […] The amplification reactions took place in a PTC-200 Peltier Thermal Cycler with a CHROMO 4 Continuous Fluorescence Detector (BioRad). […] The fold change in expression was calculated using the ΔΔCT method.

[2] = tested on: SLE patients; assay: Subgroup analysis of SLE patients with and without prednisone treatment (PBMC western blot, RT-PCR); format: in vivo, human; settings: SLE patients receiving vs not receiving prednisone
From the text: FIGS. 20A-20F. […] Results shown are mean±SE; *represents significant Pearson correlation; ^ represents a t-test with significant mean difference. Correlation was considered significant at 0.05 level (2 tailed).
The UF Institutional scientific research and review board (IRB) on human subjects approved the study protocol. Written informed consent were obtained from all patients and controls in the study. In all, 34 SLE patients and 11 healthy controls were enrolled in the present study (Table 5). All SLE patients fulfilled the 1982 American College of Rheumatology (ACR) revised criteria for SLE (Tan et al. 1982). The patient's age ranged from 22 to 73 years while the health controls age ranged from 27 to 55 years. Healthy controls (N=11) were recruited from the outpatient clinics at the participating institutions. All patients underwent baseline investigations as per clinical requirements. Disease activity was assessed by the SLE disease activity index (SLEDAI) (Bombardier et al. 1992).
PBMCs were purified from heparinized blood by Ficoll-Hypaque gradient centrifugation. Briefly, whole blood was diluted with PBS (1:1) and gently layered on Ficoll (Lymphocyte Separation Medium; Cellgro, Manassas, Va.). Cells were centrifuged continuously at 400×g for 20 minutes. PBMCs were collected from the interface layer and washed 3 times with PBS. After isolation, PBMCs were lysed with RNA lysis buffer (Promega) and stored at −80° C. until RNA extraction and qPCR protocols were performed.
RT-PCR was performed to determine the transcript levels of SOCS1, SOCS3 and STAT1 genes in PBMCs, relative to GAPDH. In brief, cDNA synthesis was performed using the iQ cDNA synthesis kit (Bio-Rad; Hercules, Calif.). The qPCR was subsequently performed using the iQ SYBR Green Super mix (Bio-Rad) and gene-specific primers for SOCS1, SOCS3, IFN-G and IL-27. The real time RT-PCR reaction was performed on CFX Connect™-Real time system. The PCR for the target gene and GAPDH was duplicated twice for each sample and the results were corrected for GAPDH expression as an internal control. Further the data was analyzed using CFX Manager™ software version 3.0 (Bio-Rad technologies, Inc.).
Frozen PMBC cell pellets were thawed and lysed in RIPA lysis buffer (Santa Cruz Technologies, Inc.) followed by protein estimation through BSA 2.0 mg/ml standard curve preparation with Pierce protein assay reagents (Thermo Scientific Product #23209). Equal quantities of proteins were loaded and separated in 4%-12% SDS PAGE gel (Bio-rad) and separated proteins were transferred to nitrocellulose membrane (Bio-Rad Laboratories, Hercules, Calif.). The membranes were then blocked and incubated with polyclonal anti-rabbit antibodies specific to the KIR regions of SOCS1 and SOCS3 (a kind gift from Dr. Howard Johnson Labs, UF), anti-pSTAT1; anti-pERK1/2; anti-pAKT and for total STAT1; ERK1/2 and AKT respectively (Cell signaling). Further probed with appropriate secondary antibodies conjugated to HRP, and visualized with the ECL detection system according to the manufacturer's instruction (Pierce; Thermo Scientifics) The GAPDH was used as a loading control. The results were calculated as densitometry arbitrary units using the J image online software.

[3] = tested on: CD4+CD25− T cells from C56BL/6 mice; assay: Th17 induction (iTh17) and activation of CD4+CD25− T cells, SOCS1 monomer vs dimer; format: cell-based, mouse; settings: Th17 inducing conditions, peptide 20 μM, 5 days
Description: FIG. 11. […] CD4+CD25− T cells from B6 mice were in the presence of Th17 inducing conditions in the presence of SOCS1 monomer or dimer for 5 days. Cells were re-stimulated with PMA, ionomycin, and brefeldin, followed by staining with anti-CD4, anti-IL17, and anti-CD25 antibodies.
Induction of Th17 cells, iTh17, and the effect of treatment on induction is illustrated in FIG. 11. CD4^+CD25^− T cells from C56BL/6 mice were incubated for 5 days at 37° C. under 1) control conditions (anti-CD3 (10 μg/ml), anti-CD28 (1.5 μg/ml)); 2) Th17 inducing conditions (anti-CD3, anti-CD28, IL-6 (20 ng/ml), TGF-β (5 ng/ml)); 3) Th17 inducing conditions with SOCS1 monomer (20 μM), or Th17 inducing conditions with SOCS1 dimer (20 μM). Following a 5-day incubation, cells were re-stimulated with phorbol myristic acetate (PMA) (50 ng/ml), ionomycin (1 μM), and brefeldin A (10 μg/ml). To assess Th17 differentiation, cells were stained with anti-CD4 and anti-IL-17A antibodies. To assess activation, cells were stained with anti-CD4 and anti-CD25 antibodies.

[4] = biological target: JAK2 (Homo sapiens, UniProt O60674); assay: Binding to the activation loop of JAK2; settings: dimer compared with monomer
[5] = Anti-cellular activity; format: cell-based; settings: dimer compared with monomer

Chain of JAK2 (O60674 whole entry, species assumed): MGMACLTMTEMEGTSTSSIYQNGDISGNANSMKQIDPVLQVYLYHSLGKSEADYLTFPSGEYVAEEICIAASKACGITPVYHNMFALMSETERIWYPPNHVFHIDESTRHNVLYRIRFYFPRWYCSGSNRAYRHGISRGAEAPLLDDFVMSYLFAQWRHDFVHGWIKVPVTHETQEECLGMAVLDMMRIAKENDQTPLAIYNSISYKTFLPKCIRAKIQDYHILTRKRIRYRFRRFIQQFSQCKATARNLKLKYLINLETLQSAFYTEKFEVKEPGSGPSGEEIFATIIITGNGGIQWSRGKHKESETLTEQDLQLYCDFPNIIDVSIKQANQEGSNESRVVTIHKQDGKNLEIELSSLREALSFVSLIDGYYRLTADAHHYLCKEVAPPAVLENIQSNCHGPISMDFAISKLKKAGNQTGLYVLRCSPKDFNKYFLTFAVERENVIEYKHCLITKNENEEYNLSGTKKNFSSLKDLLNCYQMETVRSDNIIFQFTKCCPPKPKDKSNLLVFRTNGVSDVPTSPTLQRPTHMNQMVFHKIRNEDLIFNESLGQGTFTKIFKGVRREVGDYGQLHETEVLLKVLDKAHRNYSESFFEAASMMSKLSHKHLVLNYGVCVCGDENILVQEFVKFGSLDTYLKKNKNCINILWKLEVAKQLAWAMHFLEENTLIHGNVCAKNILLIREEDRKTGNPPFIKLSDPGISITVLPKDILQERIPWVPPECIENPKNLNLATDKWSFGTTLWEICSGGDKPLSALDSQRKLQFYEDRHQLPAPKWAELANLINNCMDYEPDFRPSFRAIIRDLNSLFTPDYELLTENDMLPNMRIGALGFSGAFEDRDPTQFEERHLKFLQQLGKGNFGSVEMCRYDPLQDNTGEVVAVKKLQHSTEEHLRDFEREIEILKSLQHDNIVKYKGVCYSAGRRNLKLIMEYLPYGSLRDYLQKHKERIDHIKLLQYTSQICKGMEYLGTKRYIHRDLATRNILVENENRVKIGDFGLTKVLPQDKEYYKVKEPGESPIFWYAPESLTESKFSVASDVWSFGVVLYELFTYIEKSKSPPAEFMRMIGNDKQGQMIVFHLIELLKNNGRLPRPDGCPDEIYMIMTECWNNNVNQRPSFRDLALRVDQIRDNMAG

Compound: CCN(CC)CCCC(C)Nc1ccnc2cc(Cl)ccc12 (stereo not shown) [chloroquine]
SOCS1 expression [1]: not affected

Compound: C[C@]12C=CC(=O)C=C1CC[C@@H]1[C@@H]2C(=O)C[C@@]2(C)[C@H]1CC[C@]2(O)C(=O)CO [prednisone]
SOCS 1/3 message expression [2]: no effect | SOCS3 protein levels [2]: no effect | STAT1 phosphorylation [2]: no effect | SOCS1 protein levels ([2]; significant in inactive SLEDIA (n=9, p<0.001)): consistently had higher SOCS1 protein levels | pErk1/2 activation ([2]; significant in inactive SLEDIA patients): higher levels of pErk1/2 activation

Avidity for the activation loop of JAK2 [4]: significantly increased the avidity
Compound: DTHFRTFRSHSDYRRIGGGGGGDTHFRTFRSHSDYRRI (SOCS1-KIR dimer peptide) [SOCS1-KIR mimetic as a dimer with a six glycine (G) linker]
Inhibition of CD4+ T cell activation (CD25 staining) [3]: More Effective than SOCS1 Monomer | Inhibition of iTh17 induction (IL-17A staining) [3]: greater inhibitory effects on iTh17 than did the monomer | Anti-cellular activity [5]: increased anti-cellular activity
